Source: patent US4335249A, “Herbicidal diphenyl ethers, sulfides, sulfoxides and sulfones” (Rohm and Haas Company, priority 1976, dated 1982)

Key:
Format in all cases: in vivo
[1] = system: marigold (Tagetes spp.); assay: Preemergence herbicidal activity, marigold; settings: pre-emergence, 336 h; for pest or weed control at 2241.7 g/ha: 2 lb/A
Procedure, shortened: (§1)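 Pre: flats treated immediately post-planting. Post: treated 2 wk after germination. Spray = acetone/water solution, 50 gal/acre carrier, rate in lb/A. Read ~2 wk after treatment as average % plants killed.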

[2] = system: barnyardgrass (Echinochloa crusgalli); assay: Postemergence herbicidal activity, barnyardgrass; settings: Echinochloa crus-galli, post-emergence, 336 h, Post; for pest or weed control at 2241.7 g/ha: 2 lb/A
Procedure, shortened: (§2)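 Acetone solution diluted w/ water; spray, carrier 50 gal/acre equivalent; rate in lb/A. Pre: flats sprayed right after sowing. Post: sprayed 2 wk after germination. Weed control scored.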

[3] = system: downybrome (Bromus tectorum); assay: Postemergence herbicidal activity, downybrome; settings: Bromus tectorum, post-emergence, 336 h, Post; for pest or weed control at 2241.7 g/ha: 2 lb/A
Procedure, shortened: as §1

[4] = system: downybrome (Bromus tectorum); assay: Preemergence herbicidal activity, downybrome; settings: Bromus tectorum, pre-emergence, 336 h, Pre; for pest or weed control at 2241.7 g/ha: 2 lb/A
Procedure, shortened: as §1

[5] = system: velvetleaf (Abutilon theophrasti); assay: Preemergence herbicidal activity, velvetleaf; settings: Abutilon theophrasti, pre-emergence, 336 h, Pre; for pest or weed control at 2241.7 g/ha: 2 lb/A
Procedure, shortened: as §1

[6] = system: yellow nutsedge (Cyperus esculentus); assay: Postemergence herbicidal activity, yellow nutsedge; settings: Cyperus, post-emergence, 336 h; for pest or weed control at 2241.7 g/ha: 2 lb/A
Procedure, shortened: as §1

[7] = system: tomato (Lycopersicon esculentum); assay: Preemergence herbicidal activity, tomato; settings: Solanum lycopersicum, pre-emergence, 336 h, Pre; for pest or weed control at 2241.7 g/ha: 2 lb/A
Procedure, shortened: as §1

[8] = system: morningglory (Ipomoca spp.); assay: Preemergence herbicidal activity, morningglory; settings: Ipomoea, pre-emergence, 336 h; for pest or weed control at 2241.7 g/ha: 2 lb/A
Procedure, shortened: as §1

[9] = system: morningglory (Ipomoca spp.); assay: Postemergence herbicidal activity, morningglory; settings: Ipomoea, post-emergence, 336 h; for pest or weed control at 2241.7 g/ha: 2 lb/A
Procedure, shortened: as §1

[10] = system: velvetleaf (Abutilon theophrasti); assay: Postemergence herbicidal activity, velvetleaf; settings: Abutilon theophrasti, post-emergence, 336 h; for pest or weed control at 2241.7 g/ha: 2 lb/A
Procedure, shortened: as §2

[11] = system: wild oats (Avena fatua); assay: Postemergence herbicidal activity, wild oats; settings: Avena fatua, post-emergence, 336 h, Post, read-out: % control, Wild oat; for pest or weed control at 2241.7 g/ha: 2 lb/A
Procedure, shortened: as §1

[12] = system: tomato (Lycopersicon esculentum); assay: Postemergence herbicidal activity, tomato; settings: Solanum lycopersicum, post-emergence, 336 h, Post; for pest or weed control at 2241.7 g/ha: 2 lb/A
Procedure, shortened: as §1

[13] = system: foxtail (Setaria spp.); assay: Postemergence herbicidal activity, foxtail; settings: Setaria, post-emergence, 336 h, Post; for pest or weed control at 2241.7 g/ha: 2 lb/A
Procedure, shortened: as §1

[14] = system: yellow nutsedge (Cyperus esculentus); assay: Preemergence herbicidal activity, yellow nutsedge; settings: Cyperus, pre-emergence, 336 h; for pest or weed control at 2241.7 g/ha: 2 lb/A
Procedure, shortened: as §1

[15] = system: cocklebur (Xanthium pensylvanicum); assay: Postemergence herbicidal activity, cocklebur; settings: Xanthium strumarium, post-emergence, 336 h; for pest or weed control at 2241.7 g/ha: 2 lb/A
Procedure, shortened: as §1

[16] = system: barnyardgrass (Echinochloa crusgalli); assay: Preemergence herbicidal activity, barnyardgrass; settings: Echinochloa crus-galli, pre-emergence, 336 h, Pre; for pest or weed control at 2241.7 g/ha: 2 lb/A
Procedure, shortened: as §2

[17] = system: marigold (Tagetes spp.); assay: Postemergence herbicidal activity, marigold; settings: post-emergence, 336 h; for pest or weed control at 2241.7 g/ha: 2 lb/A
Procedure, shortened: as §1

[18] = system: cocklebur (Xanthium pensylvanicum); assay: Preemergence herbicidal activity, cocklebur; settings: Xanthium strumarium, pre-emergence, 336 h; for pest or weed control at 2241.7 g/ha: 2 lb/A
Procedure, shortened: as §1

[19] = system: wild oats (Avena fatua); assay: Preemergence herbicidal activity, wild oats; settings: Avena fatua, pre-emergence, 336 h, Pre, read-out: % control, Wild oat; for pest or weed control at 2241.7 g/ha: 2 lb/A
Procedure, shortened: as §1

[20] = system: foxtail (Setaria spp.); assay: Preemergence herbicidal activity, foxtail; settings: Setaria, pre-emergence, 336 h, Pre; for pest or weed control at 2241.7 g/ha: 2 lb/A
Procedure, shortened: as §1

| Compound | pest or weed control at 2241.7 g/ha [1] | pest or weed control at 2241.7 g/ha [2] | pest or weed control at 2241.7 g/ha [3] | pest or weed control at 2241.7 g/ha [4] | pest or weed control at 2241.7 g/ha [5] | pest or weed control at 2241.7 g/ha [6] | pest or weed control at 2241.7 g/ha [7] | pest or weed control at 2241.7 g/ha [8] | pest or weed control at 2241.7 g/ha [9] | pest or weed control at 2241.7 g/ha [10] | pest or weed control at 2241.7 g/ha [11] | pest or weed control at 2241.7 g/ha [12] | pest or weed control at 2241.7 g/ha [13] | pest or weed control at 2241.7 g/ha [14] | pest or weed control at 2241.7 g/ha [15] | pest or weed control at 2241.7 g/ha [16] | pest or weed control at 2241.7 g/ha [17] | pest or weed control at 2241.7 g/ha [18] | pest or weed control at 2241.7 g/ha [19] | pest or weed control at 2241.7 g/ha [20] | further results |
| --- | --- | --- | --- | --- | --- | --- | --- | --- | --- | --- | --- | --- | --- | --- | --- | --- | --- | --- | --- | --- | --- |
| CC(C)OC(=O)C(C)Oc1ccc(Oc2ccc(C(F)(F)F)cc2Cl)cc1 (centres unmarked) [Example 22] | 0% | 100% | 99% | 95% | 0% | 0% | 0% | 0% | 20% | 40% | 100% | 99% | 100% | 0% | 30% | 100% | 30% | 0% | 60% | 100% | – |
| CC(Oc1ccc(Oc2ccc(C(F)(F)F)cc2)cc1)C(=O)O (centres unmarked) [Example 29] | 0% | 100% | 80% | 99% | 0% | 0% | 0% | 0% | 0% | 0% | 100% | 30% | 100% | 0% | 0% | 100% | 30% | 0% | 95% | 100% | – |
| CCOC(=O)C(C)Oc1ccc(Sc2ccc(C(F)(F)F)cc2)cc1 (centres unmarked) [Example 46] | – | – | – | – | – | – | – | – | – | – | – | – | – | – | – | – | – | – | – | – | pest or weed control at 8966.8 g/ha ([1]; 8 lb/A): 0%; pest or weed control at 4483.4 g/ha ([2]; 4 lb/A): 50%; pest or weed control at 4483.4 g/ha ([3]; 4 lb/A): 30%; pest or weed control at 8966.8 g/ha ([4]; 8 lb/A): 50%; pest or weed control at 8966.8 g/ha ([5]; 8 lb/A): 0%; pest or weed control at 4483.4 g/ha ([6]; 4 lb/A): 0%; pest or weed control at 8966.8 g/ha ([7]; 8 lb/A): 0%; pest or weed control at 8966.8 g/ha ([8]; 8 lb/A): 0%; pest or weed control at 4483.4 g/ha ([9]; 4 lb/A): 0%; pest or weed control at 4483.4 g/ha ([10]; 4 lb/A): 0%; pest or weed control at 4483.4 g/ha ([11]; 4 lb/A): 20%; pest or weed control at 4483.4 g/ha ([12]; 4 lb/A): 80%; pest or weed control at 4483.4 g/ha ([13]; 4 lb/A): 30%; pest or weed control at 8966.8 g/ha ([14]; 8 lb/A): 0%; pest or weed control at 4483.4 g/ha ([15]; 4 lb/A): 0%; pest or weed control at 8966.8 g/ha ([16]; 8 lb/A): 70%; pest or weed control at 4483.4 g/ha ([17]; 4 lb/A): 0%; pest or weed control at 8966.8 g/ha ([18]; 8 lb/A): 0%; pest or weed control at 8966.8 g/ha ([19]; 8 lb/A): 0%; pest or weed control at 8966.8 g/ha ([20]; 8 lb/A): 70% |
| CCNC(=O)C(C)Oc1ccc(Oc2ccc(C(F)(F)F)cc2Cl)cc1 (centres unmarked) [Example 21] | 0% | 100% | 30% | 90% | 0% | 0% | 0% | 0% | 0% | 0% | 99% | 0% | 100% | 0% | 0% | 100% | 0% | 0% | 40% | 100% | – |
